Read-outs that look alike come from different tables or passages of the source.
Assays:
yeast α-glucosidase = experiment: α-glucosidase inhibitory activity assay (p-NPG substrate, absorbance at 405 nm); format: biochemical, Saccharomyces cerevisiae
Procedure: This experiment was carried out in 96-well plates with reaction system of 230 μL. […] The 96-well plates were incubated in a constant-temperature incubator for 20 min at 37 °C, then 20 μL of 2.658 mmol/L p-PNG was added, and then incubation continued for another 28 min. The termination of the reaction was conducted by adding 80 μL of 0.2 mol/L Na2CO3 to each well. The absorbance was recorded for each well at 405 nm by a microplate reader, and the experiment was carried out three times in parallel. The measured absorbance values were processed by Graphpad Prism software 9.5 to calculate the IC50 values of the compounds.

α-glucosidase = experiment: Inhibitory kinetics against α-glucosidase (Lineweaver–Burk plots); format: biochemical, Saccharomyces cerevisiae; details: Lineweaver–Burk plot; compound 0, 5.44, 10.87, 21.74 μM
Excerpt: The inhibitory kinetics of seven compounds (8-9, 11, 13, 24-26) that have strong α-glucosidase inhibitory activities were studied. The Lineweaver–Burk plot was used to determine their inhibition types against α-glucosidase. […] As for compound 8, the slope of the lines became greater with the increase in the concentration, but all straight lines intersected with the x-axis almost at one point (while Vmax decreased, Km was unchanged), showing that α-glucosidase inhibition mediated by compound 8 is noncompetitive, signifying that it can bind to either the free α-glucosidase or the enzyme–substrate complex to interfere the enzyme reaction without directly blocking the binding of the substrate to the enzyme.
Concentrations of active compounds 8-9, 11, 13, 24-26 (0, 5.44, 10.87, 21.74 μM) and the substrate p-NPG ([…]) were prepared, and an experimental protocol is described in detail in the literature. The data were acquired using the Lineweaver–Burk equation of enzyme kinetics.

[1] = IC50 ± SD, PBS pH 6.8, 37 °C, three times in parallel, read-out: IC50 (μM), inhibition activities on α-Glucosidase
[2] = unit inferred, read-out: IC50 against α-glucosidase (unit inferred)

In the case of 3, 4′-O-dimethylquercetin [Compound 21], the IC50 (yeast α-glucosidase; [1]) is reported as 19.4 ± 1.02 µM.

Work on “7, 3′, 4′-trihydroxy isoflavone [Compound 24]” yielded an IC50 (yeast α-glucosidase; [1]) of 6.5 ± 0.42 µM.

In the case of `COc1cc(O)c2c3c1C[C@H](C(C)(C)O)[C@H](c1ccccc1)[C@H]3OC2=O` [Compound 1, cajanstilbenoid C], the IC50 (yeast α-glucosidase; [1]) is reported as over 2000 µM.

Work on `COc1cc(/C=C/c2ccccc2)c(C(=O)O)c2c1C[C@@H](O)C(C)(C)O2` [Compound 2, cajanstilbenoid D] yielded an IC50 (yeast α-glucosidase; [1]) of over 2000 µM.

With `CC(C)=CCc1c(O)cc(/C=C/c2ccccc2)cc1O` [Compound 3, chiricanine A] the IC50 (yeast α-glucosidase; [1]) was 30.3 ± 2.33 µM.

In the case of `CC1(C)Oc2cc(/C=C/c3ccccc3)cc(O)c2CC1O` (stereo not drawn) [Compound 4, chiricanine B], the IC50 (yeast α-glucosidase; [1]) is reported as over 2000 µM.

With `COc1cc(/C=C/c2ccccc2)c(C(=O)O)c(O)c1CC=C(C)C` [Compound 5, cajaninstilbene acid] the IC50 (yeast α-glucosidase; [1]) was over 2000 µM.

In the case of `COc1cc(O)cc(/C=C/c2ccccc2)c1` [Compound 6, pinosylvin monomethyl ether], the IC50 (yeast α-glucosidase; [1]) is reported as over 2000 µM.

For `COc1cc(O)cc(CC(=O)c2ccccc2)c1CC=C(C)C` [Compound 7, cajanotone], the IC50 (yeast α-glucosidase; [1]) was over 2000 µM.

`COc1cc(O)cc(CCc2ccccc2)c1CC=C(C)C` [Compound 8] was tested, and the IC50 (yeast α-glucosidase; [1]) was 7 ± 0.45 µM and the “inhibition type against α-glucosidase” value (α-glucosidase) was “noncompetitive”.

For `COc1cc(/C=C/c2ccccc2)cc(O)c1CC=C(C)C` [Compound 9, longistylin A], the IC50 (yeast α-glucosidase; [1]) was 12.9 ± 1.31 µM and the “inhibition type against α-glucosidase” value (α-glucosidase) was “mixed-competitive”.

In the case of `CC(C)=CCc1c(O)cc(O)c2c(=O)c(O)c(-c3ccc(O)c(O)c3)oc12` [Compound 11, 8-prenylquercretin], the IC50 (yeast α-glucosidase; [1]) is reported as 0.87 ± 0.05 µM, the IC50 (yeast α-glucosidase; read-out: IC50 against α-glucosidase (text, with unit)) is reported as 0.87 ± 0.05 µM and the “inhibition type against α-glucosidase” value (α-glucosidase) is reported as “anticompetitive”.

For `CC(C)=CCc1c(O)cc2oc(-c3ccccc3)cc(=O)c2c1O` [Compound 12, 6-C-(3,3-dimethylallyl) chrysin], the IC50 (yeast α-glucosidase; [1]) was over 2000 µM.

`COc1cc(O)c2c(=O)cc(-c3ccccc3)oc2c1CC=C(C)C` [Compound 13, 5-hydroxy-7-methoxy-8-prenylflavone] was tested, and the IC50 (yeast α-glucosidase; [1]) was 2.3 ± 0.51 µM, the IC50 (yeast α-glucosidase; [2]) was 2.3 ± 0.5 µM and the “inhibition type against α-glucosidase” value (α-glucosidase) was “mixed-competitive”.

Molecule `COc1cc(O)c2c(c1CC=C(C)C)O[C@H](c1ccccc1)[C@@H](O)C2=O` [Compound 14, 3,5-dihydroxy-7-methoxy-8-isopentenyl-dihydroflavone] has an IC50 (yeast α-glucosidase; [1]) of over 2000 µM.

Molecule `COc1cc(O)c2c(c1)O[C@H](c1ccccc1)CC2=O` [Compound 15, pinostrobin] has an IC50 (yeast α-glucosidase; [1]) of over 2000 µM.

`COc1cc(O)c2c(c1)O[C@H](c1ccc(O)cc1)CC2=O` [Compound 16, sakuranetin] showed an IC50 (yeast α-glucosidase; [1]) of over 2000 µM.

Work on `COc1ccc2c(=O)c(-c3ccc(O)cc3O)coc2c1` [Compound 18, 7-methoxy-2′, 4′-dihydroxy isoflavone] yielded an IC50 (yeast α-glucosidase; [1]) of over 2000 µM.

Molecule `COc1ccc(-c2oc3cc(O)cc(O)c3c(=O)c2O)cc1O` [Compound 19, tamarixetin] has an IC50 (yeast α-glucosidase; [1]) of 8.7 ± 0.08 µM.

`CC(C)=CCc1c(O)cc(O)c2c1O[C@H](c1ccc(O)cc1)[C@@H](O)C2=O` [Compound 20, neophellamuretin] was tested, and the IC50 (yeast α-glucosidase; [1]) was 4.5 ± 0.49 µM and the IC50 (yeast α-glucosidase; [2]) was 4.5 ± 0.49 µM.

`O=c1cc(-c2ccc(O)cc2)oc2c(C3OCC(O)C(O)C3O)c(O)cc(O)c12` [Compound 23, apigenin-8-C-α-L-arabinopyranoside] showed an IC50 (yeast α-glucosidase; [1]) of over 2000 µM.

With `O=c1cc(-c2ccc(O)c(O)c2)oc2cc(O)ccc12` [Compound 25, 7, 3′, 4′-trihydroxy flavone] the IC50 (yeast α-glucosidase; [1]) was 3.17 ± 0.55 µM and the IC50 (yeast α-glucosidase; [2]) was 3.17 ± 0.55 µM.

With `CC1(C)C=Cc2c(cc(O)c3c2O[C@H](c2ccc(O)cc2)CC3=O)O1` [Compound 26, 8-prenylnaringenin C] the IC50 (yeast α-glucosidase; [1]) was 2.35 ± 0.54 µM and the IC50 (yeast α-glucosidase; [2]) was 2.35 ± 0.54 µM.

Work on `CC1(C)C=Cc2c(cc3occ(-c4ccc(O)cc4)c(=O)c3c2O)O1` [Compound 27, alpinum isoflavone] yielded an IC50 (yeast α-glucosidase; [1]) of over 2000 µM.
